The source of these data is PMC4667898, “Antibody Binding Selectivity: Alternative Sets of Antigen Residues Entail High-Affinity Recognition” (PLoS ONE, 2015).

The test system of the assay is scFv1F4-QL34S. In words: PEPperCHIP peptide array, spot fluorescence after staining with DyLight680-labeled scFv. Format: binding. The method, then: ScFv1F4-QL34S labeling with DyLight680, peptide array synthesis and binding detection were performed by PEPperPRINT GmbH (PEPperCHIP® Platform Technology, Heidelberg, Germany). The permutation scans were carried out on the WT decapeptide ^6TAMFQDPQER^15 and on its variants. In a permutation scan, the effect on binding of replacing each of the ten peptide positions by all amino-acids except cysteine is analyzed, which requires the synthesis of 190 spot peptides per starting peptide (19 amino-acids at 10 positions). Two arrays were prepared, each containing the permutation analysis of the WT peptide and of 19 variants. All peptides were synthesized in duplicate (7,600 peptide spots per array). The peptide arrays were stained with the DyLight680-labeled scFv1F4-QL34S. The permutation scans of the WT peptide and of variant ^6TAMFQDPFER^15 are highlighted by white frames. The staining pattern of array A (S1 Fig) was published previously.
The objective was to investigate whether a starting amino-acid replacement modifies the effect on binding of amino-acid changes at neighboring positions. For example the effect of a deleterious starting change could be compensated by a replacement elsewhere. Residue interdependences may also be found in the case of non-deleterious starting replacements. They can be identified by comparing the permutation patterns of the WT and variant peptides. Arrays A [28] (S1 Fig) and B (Fig 1) each contained the permutation scans of the WT decapeptide ^6TAMFQDPQER^15 and of nineteen variants. Data recorded for the WT and 14 variant peptides of array A were described previously. The data presented here include all permutation scans in array B (WT and 19 variants), together with those of 5 variants in array A. One of these was performed twice in array A (peptide ^6TRMFQDVQER^15). Therefore the data include the permutations scans of the WT and of 23 variant decapeptides (Table 1), each of them being recorded at least in duplicate.
The repeatability of fluorescence measurements can be assessed because: i/ all peptides were synthesized in duplicate (Fig 1), ii/ the duplicated scan of peptide ^6TRMFQDVQER^15 was repeated in array A and iii/ several peptides occur repeatedly within a same or in different families. Array B contained 3,222 different peptides, with 105 peptides repeated between 6 and 46 times.
The signal intensity ranges differed in the two arrays: 6,800 and 18,100 for the scFv—WT decapeptide interaction in arrays A and B, respectively (Table 1). However normalization of the intensity values with respect to the mean value of the scFv1F4-WT peptide intensity in each panel, produced well-superimposed patterns (Fig 2). […] In addition, assuming that T6 is not part of the epitope, the variability observed for this position (standard deviation = 0.12) provides insight into the statistical significance of the normalized intensities.

The mark [1] stands for this setting: array B, mean intensity relative to WT decapeptide of array B.
Setting [2] is: array A, mean intensity relative to WT decapeptide of array A.

As to “TAMFQRAQER [starting variant of the WT decapeptide on array B]”, the “% of WT signal” value under setting [1] turned out to be 3%.

Take “TAMFQDYQER [starting variant of the WT decapeptide on array B]”: the “% of WT signal” value under setting [1] amounted to 7%. In addition, the “averaged fluorescence signal as % of that recorded with the WT peptide” value (array not stated at the place (arrays A and B)) is below 10%.

For “TGSFQRASFM [starting variant of the WT decapeptide on array B]”, the “% of WT signal” value under setting [1] is recorded as 2%.

With “TAMFQDVFER [starting variant of the WT decapeptide on array A]”, the “% of WT signal” value under setting [2] stood at 14% and the “% of WT signal” value (array A, mean intensity relative to WT decapeptide of array A, listed as P12V-Q13F) is recorded as “exceeded 10%”.

With “TAMFQDPQEA [starting variant of the WT decapeptide on array B]”, under setting [1], the “% of WT signal” value came out at 6%.

Regarding “TAMFQDQQER [starting variant of the WT decapeptide on array B]”, the “% of WT signal” value under setting [1] amounted to 5%.

“TAMFQDPQER [WT decapeptide, residues 6-15 of HPV16-E6 oncoprotein, array-synthesized]”: the “% of WT signal” value under setting [1] is 100%.

Consider “TQMFQDPYER [starting variant of the WT decapeptide on array A]”, for which the “% of WT signal” value was 23% under setting [2] and “exceeded 10%” (array A, mean intensity relative to WT decapeptide of array A, listed as A8Q-Q13Y).

With “TRMFQDVQER [starting variant of the WT decapeptide on array A]”, the “% of WT signal” value under setting [2] is on record as 5%.

“TAMFQDPQEQ [starting variant of the WT decapeptide on array B]”: the “% of WT signal” value under setting [1] was determined as 24%.

With “TAMFQDVYER [starting variant of the WT decapeptide on array B]”, the “% of WT signal” value is listed as 16% under setting [1] and “exceeded 10%” (array B, mean intensity relative to WT decapeptide of array B, listed as P12V-Q13Y).

For “TAMFQTPQER [starting variant of the WT decapeptide on array B]”, under setting [1], the “% of WT signal” value was determined as 3%.

As for “TAMFQSPYER [starting variant of the WT decapeptide on array A]”, the “% of WT signal” value by setting is: under setting [2], 21%; (array A, mean intensity relative to WT decapeptide of array A, listed as D11S-Q13Y) “exceeded 10%”.

As to “TAMLADPQER [starting variant of the WT decapeptide on array B]”, the “% of WT signal” value under setting [1] turned out to be 3%.

With “TAMFQDPFER [starting variant of the WT decapeptide on array B]”, under setting [1], the “% of WT signal” value was 68%.

On to “TAMFQDPYER [starting variant of the WT decapeptide on array B]”, for which, under setting [1], the “% of WT signal” value stood at 37%.

As for “TAMFQDHQER [starting variant of the WT decapeptide on array B]”, the “% of WT signal” value under setting [1] turned out to be 4%.

In the case of “TAMLQDPQER [starting variant of the WT decapeptide on array B]”, the “% of WT signal” value under setting [1] came to 3%.

Turning to “TAMFKDPQER [starting variant of the WT decapeptide on array B]”, under setting [1], the “% of WT signal” value was 2%.

For the sequence “TAMDQDPQER [starting variant of the WT decapeptide on array B]”, the “% of WT signal” value under setting [1] is listed as 3%.

In the case of “TAMFADPQER [starting variant of the WT decapeptide on array B]”, the “% of WT signal” value under setting [1] is on record as 2%.

Take “TAMFQDPSFM [starting variant of the WT decapeptide on array B]”: the “% of WT signal” value under setting [1] came to 2%.

In the case of “TAMFQDVQER [starting variant of the WT decapeptide on array B]”, the “% of WT signal” value under setting [1] amounted to 16%.

As for “TGSFQDPQER [starting variant of the WT decapeptide on array B]”, the “% of WT signal” value under setting [1] is given as 66% and the “% of WT signal” value (array B, mean intensity relative to WT decapeptide of array B, listed as A7G-M8S) is given as “exceeded 10%”.
